Results from article PMC5729109 (Journal of the American Chemical Society, 2017).
Several values for one entry are separate records, joined by “and”; a condition that tells them apart may be missing. Equal entries are not always repeated. Marks after values point to notes of the source that are not given here. *1 amine or outer side, *2 acyl side, *3 side chain or, on linkers, in order; H or OH if unused. Where a SMILES comes first, the peptide text is derived from it. Bridges are numbered along the chain shown (N, C = ends). [ ]: non-standard residue; d: D form. Adda = CO[C@@H](Cc1ccccc1)[C@@H](C)/C=C(C)/C=C/[C@H](N[*:1])[C@H](C)C(=O)[*:2]; dAsp(3S-Me) = C[C@H](C(=O)[*:3])[C@@H](N[*:1])C(=O)[*:2]; d(γGlu) = O=C(O)[C@@H](CCC(=O)[*:2])N[*:1]; NMeDha = C=C(NC)C(=O)O

Legend:
[1] = target: PP1 Cys127Ser mutant (C127SPP1) (Homo sapiens, UniProt P62136, C127S); format: biochemical
Chain of PP1 Cys127Ser mutant (C127SPP1) (P62136 whole entry C127S): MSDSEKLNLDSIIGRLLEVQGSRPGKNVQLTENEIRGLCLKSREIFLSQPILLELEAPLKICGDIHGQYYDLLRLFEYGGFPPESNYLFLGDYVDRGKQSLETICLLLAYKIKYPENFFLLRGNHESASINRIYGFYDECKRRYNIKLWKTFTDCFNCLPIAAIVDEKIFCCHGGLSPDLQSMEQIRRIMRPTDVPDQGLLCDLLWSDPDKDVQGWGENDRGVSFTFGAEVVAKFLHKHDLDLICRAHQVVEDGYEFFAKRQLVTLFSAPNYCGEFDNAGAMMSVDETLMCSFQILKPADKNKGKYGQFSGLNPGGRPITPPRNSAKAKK

PP1, PP2A, PP4 and PP5 = conditions: cited from earlier work
SHP1 [2] = experiment: Tyrosine phosphatase inhibition, SHP1; format: biochemical; conditions: IC50 SHP1 / IC50 PP1
CD45 [3] = experiment: Tyrosine phosphatase inhibition, CD45; format: biochemical; conditions: IC50 CD45 / IC50 PP1
Lyp [4] = experiment: Tyrosine phosphatase inhibition, Lyp; format: biochemical; conditions: IC50 Lyp / IC50 PP1
VHR [5] = experiment: Tyrosine phosphatase inhibition, VHR; format: biochemical; conditions: IC50 VHR / IC50 PP1
PP1 [6] = target: T1, PP1 (Homo sapiens, UniProt P62136); experiment: [32P]-phosphohistone dephosphorylation assay, PP1; format: biochemical
T1 sequence (P62136 whole entry): as the sequence (P62136 whole entry C127S) above, with S127C counted along it

PP2B = PP2B (Homo sapiens, UniProt Q08209); experiment: DiFMUP dephosphorylation assay, PP2B; format: biochemical
Chain of PP2B (P63098 2-170, other chains not shown): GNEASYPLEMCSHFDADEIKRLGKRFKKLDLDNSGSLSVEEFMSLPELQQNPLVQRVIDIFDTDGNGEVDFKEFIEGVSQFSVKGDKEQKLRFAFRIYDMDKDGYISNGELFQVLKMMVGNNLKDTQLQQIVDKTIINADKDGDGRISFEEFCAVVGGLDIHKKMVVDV

PP6 = PP6 (Homo sapiens, UniProt O00743); experiment: DiFMUP dephosphorylation assay, PP6; format: biochemical
Chain of PP6 (O00743 whole entry): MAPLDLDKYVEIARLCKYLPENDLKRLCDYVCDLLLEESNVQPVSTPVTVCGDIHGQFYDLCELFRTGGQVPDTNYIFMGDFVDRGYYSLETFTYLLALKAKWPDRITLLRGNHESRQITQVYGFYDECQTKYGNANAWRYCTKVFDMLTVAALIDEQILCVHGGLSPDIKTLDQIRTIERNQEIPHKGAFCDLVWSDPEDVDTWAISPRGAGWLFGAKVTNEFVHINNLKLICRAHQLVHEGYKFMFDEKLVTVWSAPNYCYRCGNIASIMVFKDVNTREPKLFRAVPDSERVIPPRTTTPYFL

Lyp [7] = conditions: tyrosine phosphatase; cited from earlier work
PP4 = PP4 (Homo sapiens, UniProt P60510); experiment: DiFMUP dephosphorylation assay, PP4; format: biochemical
Chain of PP4 (P60510 whole entry): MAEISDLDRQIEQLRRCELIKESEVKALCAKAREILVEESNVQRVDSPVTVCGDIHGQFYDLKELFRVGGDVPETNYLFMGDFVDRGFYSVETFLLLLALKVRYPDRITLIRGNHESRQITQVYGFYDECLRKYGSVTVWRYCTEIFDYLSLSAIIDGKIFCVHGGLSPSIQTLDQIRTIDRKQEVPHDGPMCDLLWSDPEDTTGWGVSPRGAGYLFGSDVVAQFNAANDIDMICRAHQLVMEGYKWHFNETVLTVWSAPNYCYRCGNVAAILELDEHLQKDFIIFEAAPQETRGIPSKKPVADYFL

PP1 [8] = target: T1, PP1; experiment: Lineweaver-Burk kinetic analysis, PP1; format: biochemical; conditions: WT PP1; indicative of irreversible enzyme inhibition; Figure S6
PP5 = PP5 (Homo sapiens, UniProt P53041); experiment: [32P]-phosphohistone dephosphorylation assay, PP5; format: biochemical
Chain of PP5 (P53041 whole entry): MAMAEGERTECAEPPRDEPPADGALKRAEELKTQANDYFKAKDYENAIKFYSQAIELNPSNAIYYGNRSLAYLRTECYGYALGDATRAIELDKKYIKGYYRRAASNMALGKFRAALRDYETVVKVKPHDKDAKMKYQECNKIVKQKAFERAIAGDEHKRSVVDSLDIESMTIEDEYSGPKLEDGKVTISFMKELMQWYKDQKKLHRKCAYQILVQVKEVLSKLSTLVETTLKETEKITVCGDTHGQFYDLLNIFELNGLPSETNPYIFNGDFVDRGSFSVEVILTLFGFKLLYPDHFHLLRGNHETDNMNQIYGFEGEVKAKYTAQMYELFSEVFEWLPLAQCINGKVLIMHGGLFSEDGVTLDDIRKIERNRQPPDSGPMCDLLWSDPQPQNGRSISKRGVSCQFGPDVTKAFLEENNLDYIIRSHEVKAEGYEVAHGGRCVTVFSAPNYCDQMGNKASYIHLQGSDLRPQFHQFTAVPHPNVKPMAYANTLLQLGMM

PP1 (Cys127) = PP1 (Cys127) (Homo sapiens, UniProt P62136); experiment: ESI mass spectrometry of covalent PP1:TTN adduct, time-course; format: binding; conditions: ESI-MS time-course analysis
Chain of PP1 (Cys127) (P62136 7-300): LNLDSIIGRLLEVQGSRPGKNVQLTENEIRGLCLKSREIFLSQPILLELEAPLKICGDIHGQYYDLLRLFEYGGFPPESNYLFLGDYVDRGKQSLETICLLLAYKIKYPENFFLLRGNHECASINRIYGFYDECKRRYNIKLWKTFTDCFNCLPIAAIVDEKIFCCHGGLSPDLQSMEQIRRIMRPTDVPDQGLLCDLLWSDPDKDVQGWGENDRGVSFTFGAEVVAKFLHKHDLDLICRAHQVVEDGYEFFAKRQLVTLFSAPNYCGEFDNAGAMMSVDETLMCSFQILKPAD

SHP2 [9] = conditions: tyrosine phosphatase; cited from earlier work
HePTP [10] = experiment: Tyrosine phosphatase inhibition, HePTP; format: biochemical; conditions: IC50 HePTP / IC50 PP1
HePTP [11] = conditions: tyrosine phosphatase; cited from earlier work
CD45 [12] = conditions: tyrosine phosphatase; cited from earlier work
PP2A [13] = target: T2, PP2A (Homo sapiens, UniProt P67775); experiment: [32P]-phosphohistone dephosphorylation assay, PP2A; format: biochemical
T2 sequence (P67775 whole entry): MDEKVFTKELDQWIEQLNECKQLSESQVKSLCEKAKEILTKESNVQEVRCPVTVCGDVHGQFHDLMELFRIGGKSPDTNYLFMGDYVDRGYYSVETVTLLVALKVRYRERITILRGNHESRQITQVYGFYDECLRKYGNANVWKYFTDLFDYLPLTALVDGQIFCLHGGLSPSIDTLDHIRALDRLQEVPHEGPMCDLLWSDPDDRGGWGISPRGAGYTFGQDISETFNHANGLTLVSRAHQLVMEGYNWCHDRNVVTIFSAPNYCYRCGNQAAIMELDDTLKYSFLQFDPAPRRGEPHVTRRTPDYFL

CDC14A [14] = experiment: Tyrosine phosphatase inhibition, CDC14A; format: biochemical; conditions: IC50 CDC14A / IC50 PP1
PTP1B [15] = experiment: Tyrosine phosphatase inhibition, PTP1B; format: biochemical; conditions: IC50 PTP1B / IC50 PP1
SHP1 [16] = conditions: tyrosine phosphatase; cited from earlier work
SHP2 [17] = experiment: Tyrosine phosphatase inhibition, SHP2; format: biochemical; conditions: IC50 SHP2 / IC50 PP1
PTP1B [18] = conditions: tyrosine phosphatase; cited from earlier work
PTPα [19] = experiment: Tyrosine phosphatase inhibition, PTPα; format: biochemical; conditions: IC50 PTPα / IC50 PP1
PTPα [20] = conditions: tyrosine phosphatase; cited from earlier work
CDC14A [21] = conditions: tyrosine phosphatase; cited from earlier work
PPP family members = experiment: In vitro dephosphorylation assays across PPP family members; format: biochemical
VHR [22] = conditions: tyrosine phosphatase; cited from earlier work
PP2A [23] = target: T2, PP2A; conditions: cited from earlier work

SMILES: C=C1C(=O)N[C@H](C)C(=O)N[C@@H](CC(C)C)C(=O)N[C@@H](C(=O)O)[C@H](C)C(=O)N[C@@H](CCCNC(=N)N)C(=O)N[C@@H](/C=C/C(C)=C/[C@H](C)[C@H](Cc2ccccc2)OC)[C@H](C)C(=O)N[C@@H](C(=O)O)CCC(=O)N1C [Microcystin-LR] (R[Adda][d(γGlu)][NMeDha][dA]L[dAsp(3S-Me)]-OH; lactam N-7)
- Change of IC50 for C127SPP1 compared to WT PP1 [1]: no difference

SMILES: CO[C@H]([C@H](O)CC(=O)[C@@H](C)[C@@H](O)CC[C@@H](C)[C@@H]1O[C@]2(CC[C@@H](C)[C@H](CC[C@H](C)C(C)=O)O2)CC[C@@H]1C)[C@H](OC(=O)C[C@@H](O)C1=C(C)C(=O)OC1=O)C(C)C [TTM, tautomycin]
- Inhibition of PP1, PP2A, PP4 and PP5 compared (PP1, PP2A, PP4 and PP5): to a similar extent

SMILES: C=C/C(=C/C(=O)C[C@H](C)C[C@@H](C)CC[C@H](O)[C@H](C)C(=O)C[C@@H](O)[C@H](C)[C@@H](C)OC(=O)C[C@@H](O)C1=C(C)C(=O)OC1=O)CC [TTN, Tautomycetin]
- Fold change (relative to PP1) (SHP1 [2]): >10^5 fold
- Fold change (relative to PP1) (CD45 [3]): >10^5 fold
- Fold change (relative to PP1) (Lyp [4]): >10^5 fold
- Fold change (relative to PP1) (VHR [5]): >10^5 fold
- IC50 (PP1 [6]): 0.038 ± 0.009 nM
- IC50 (PP2B): 17.5 ± 3.2 µM
- Fold change (relative to PP1) (PP2B; IC50 PP2B / IC50 PP1): >10^5 fold
- IC50 (PP6): 0.101 ± 0.007 µM
- Fold change (relative to PP1) (PP6; IC50 PP6 / IC50 PP1): 2657 fold
- IC50 (Lyp [7]): 20 ± 2 µM
- IC50 (PP4): 0.0444 ± 0.0042 µM
- Fold change (relative to PP1) (PP4; IC50 PP4 / IC50 PP1): 1168 fold
- Mode of inhibition (Lineweaver-Burk kinetic analysis) (PP1 [8]): noncompetitive inhibition
- IC50 (PP5): 0.0119 ± 5e-05 µM
- Fold change (relative to PP1) (PP5; IC50 PP5 / IC50 PP1, [32P]-phosphohistone): 313 ^b fold
- Time of covalent adduct formation with PP1 (PP1 (Cys127)): less than 10 min
- IC50 (SHP2 [9]): 2.9 ± 0.2 µM
- Fold change (relative to PP1) (HePTP [10]): >10^5 fold
- IC50 (HePTP [11]): > 50 µM
- IC50 (CD45 [12]): > 50 µM
- IC50 (PP2A [13]): 0.0053 ± 0.00026 µM
- Fold change (relative to PP1) (PP2A [13]; IC50 PP2A / IC50 PP1, [32P]-phosphohistone): 139 ^b fold
- Fold change (relative to PP1) (CDC14A [14]): >10^5 fold
- Fold change (relative to PP1) (PTP1B [15]): >10^5 fold
- IC50 (SHP1 [16]): 14.6 ± 0.1 µM
- Fold change (relative to PP1) (SHP2 [17]): >10^4 fold
- IC50 (PTP1B [18]): 41.2 ± 4.4 µM
- Fold change (relative to PP1) (PTPα [19]): >10^5 fold
- IC50 (PTPα [20]): > 50 µM
- IC50 (CDC14A [21]): > 50 µM
- Change of IC50 for C127SPP1 compared to WT PP1 [1]: ~10 fold
- Mode of inhibition (Lineweaver-Burk kinetic analysis) ([1]; C127SPP1, Figure S6): competitive inhibition
- Selectivity (potency) for PP1 versus any other PPP tested (PPP family members): > 100 fold and 100 fold
- Fold higher IC50 than for PP1, the other PPPs tested (PPP family members; PPPs other than PP2A and PP5): > 10^3 fold
- IC50 (VHR [22]): > 50 µM

SMILES: C[C@@](O)(/C=C/[C@H]1CC=CC(=O)O1)[C@@H](C[C@@H](O)\C=C/C=C\C=C\CO)OP(=O)(O)O [fostriecin]
- Inhibition of PP2A compared with PP4 (PP2A [23]): nearly the same extent
